# Data published in patent US20150246902A1, “SUBSTITUED BENZOFURAN COMPOUNDS AND METHODS OF USE THEREOF FOR THE TREATMENT OF VIRAL DISEASES” (priority 2011, published 2015).
# Assays:
# HCV replicon genotype 1a = test: microbe, parasite or virus in culture; type: cell-based; details: Hepatitis C virus, 96 h, HCV genotype 1a replicon cells, 96 hours incubation, NS3/4A ELISA readout
# HCV replicon genotype 1b = test: microbe, parasite or virus in culture; type: cell-based; details: Hepatitis C virus, 96 h, HCV genotype 1b replicon cells, 96 hours incubation, NS3/4A ELISA readout
SMILES,IC50 (HCV replicon genotype 1a),IC50 (HCV replicon genotype 1b)
CNC(=O)c1c(-c2ccc(F)cc2)oc2cc(N(C)S(C)(=O)=O)c(-c3cccc4c3ncn4-c3ccccc3)cc12 [Compound 38],629 nM,155 nM
CNC(=O)c1c(-c2ccc(F)cc2)oc2cc(N(C)S(C)(=O)=O)c(-c3ccc4ccn(-c5ccc(F)cc5)c4n3)cc12 [Compound 64],409 nM,76.1 nM
CNC(=O)c1c(-c2ccc(F)cc2)oc2cc(N(C)S(C)(=O)=O)c(-c3ccc4ncn(-c5ccccc5F)c4c3)cc12 [Compound 3],68 nM,5.8 nM
CNC(=O)c1c(-c2ccc(F)cc2)oc2cc(N(C)S(C)(=O)=O)c(-c3cc(F)c4[nH]c(=O)n(-c5cc(F)cc(F)c5)c4c3)cc12 [Compound 81],30.3 nM,5.2 nM
CNC(=O)c1c(-c2ccc(F)cc2)oc2cc(N(C)S(C)(=O)=O)c(-c3ccc4ncn(-c5ccccc5)c4c3)cc12 [Compound 2],13.2 nM,2.5 nM
CNC(=O)c1c(-c2ccc(F)cc2)oc2cc(N(C)S(C)(=O)=O)c(-c3cnc4ccn(-c5ccc(C(F)(F)F)cc5)c4c3)cc12 [Compound 48],2.6 nM,3.3 nM
CNC(=O)c1c(-c2ccc(F)cc2)oc2cc(N(C)S(C)(=O)=O)c(-c3ccc4cnn(-c5ccc(C(F)(F)F)cc5)c4c3)cc12 [Compound 107],8.3 nM,6.1 nM
"CNC(=O)c1c(-c2ccc(F)cc2)oc2cc(N(C)S(C)(=O)=O)c(-c3ccc4oc(Cc5ccc(F)cc5)nc4n3)cc12 [Compound 84, 5-(2-(4-fluorobenzyl)oxazolo[4,5-b]pyridin-5-yl)-2-(4-fluorophenyl)-N-methyl-6-(N-methylmethylsulfonamido)benzofuran-3-carboxamide]",53.7 nM,8.6 nM
CNC(=O)c1c(-c2ccc(F)cc2)oc2cc(N(C)S(C)(=O)=O)c(-c3ccc4nc(C)n(-c5ccccc5)c4c3)cc12 [Compound 18],16.6 nM,2.1 nM
CNC(=O)c1c(-c2ccc(F)cc2)oc2cc(N(C)S(C)(=O)=O)c(-c3ccc4c(ccn4-c4ccc(C(F)(F)F)cc4)c3)cc12 [Compound 56],224 nM,30.8 nM
"CNC(=O)c1c(-c2ccc(F)cc2)oc2cc(N(C)S(C)(=O)=O)c(-c3ccc4ccn(Cc5ccc(C(F)(F)F)cc5)c4c3)cc12 [Compound 67, 2-(4-fluorophenyl)-N-methyl-6-(N-methylmethylsulfonamido)-5-(1-(4-(trifluoromethyl)benzyl)-1H-indol-6-yl)benzofuran-3-carboxamide]",132 nM,49.8 nM
CNC(=O)c1c(-c2ccc(F)cc2)oc2cc(N(C)S(C)(=O)=O)c(-c3cn4c(-c5ccc(Cl)cc5)cnc4cn3)cc12 [Compound 93],47.9 nM,7.9 nM
"CNC(=O)c1c(-c2ccc(F)cc2)oc2cc(N(C)S(C)(=O)=O)c(-c3ccc4c(n3)nc(-c3ccccc3)n4C(C)(C)C)cc12 [Compound 100, 5-(1-(tert-butyl)-2-phenyl-1H-imidazo[4,5-b]pyridin-5-yl)-2-(4-fluorophenyl)-N-methyl-6-(N-methylmethylsulfonamido)benzofuran-3-carboxamide]",297 nM,73 nM
CNC(=O)c1c(-c2ccc(F)cc2)oc2cc(N(C)S(C)(=O)=O)c(-c3cc(F)c4nc(N)n(-c5cc(F)cc(F)c5)c4c3)cc12 [Compound 79],31.4 nM,3.1 nM
CNC(=O)c1c(-c2ccc(F)cc2)oc2cc(N(C)S(C)(=O)=O)c(-c3ccc4[nH]cc(-c5ccncc5)c4c3)cc12 [Compound 71],21.5 nM,4.5 nM
CNC(=O)c1c(-c2ccc(F)cc2)oc2cc(N(C)S(C)(=O)=O)c(-c3ccc4[nH]nc(-c5ccncc5)c4c3)cc12 [Compound 74],20.6 nM,5.4 nM
CNC(=O)c1c(-c2ccc(F)cc2)oc2cc(N(C)S(C)(=O)=O)c(-c3cnc4ccn(-c5ccc(C#N)cc5)c4c3)cc12 [Compound 49],8.3 nM,3.3 nM
"CNC(=O)c1c(-c2ccc(F)cc2)oc2cc(N(C)S(C)(=O)=O)c(-c3cnc4ccn(-c5ccc(F)cc5)c4c3)cc12 [Compound 47, 2-(4-fluorophenyl)-5-(1-(4-fluorophenyl)-1H-pyrrolo[3,2-b]pyridin-6-yl)-N-methyl-6-(N-methylmethylsulfonamido)benzofuran-3-carboxamide]",2.1 nM,1.5 nM
CNC(=O)c1c(-c2ccc(F)cc2)oc2cc(N(C)S(C)(=O)=O)c(-c3ccc4ncn(-c5ccccc5C(F)(F)F)c4c3)cc12 [Compound 9],75.8 nM,7.1 nM
CNC(=O)c1c(-c2ccc(F)cc2)oc2cc(N(C)S(C)(=O)=O)c(-c3ccc4c(c3)ncn4-c3cccnc3)cc12 [Compound 22],14.4 nM,3.3 nM
"CNC(=O)c1c(-c2ccc(F)cc2)oc2cc(N(C)S(C)(=O)=O)c(-c3ccc4cnn(-c5ccc(F)cc5)c4c3)cc12 [Compound 105, 2-(4-fluorophenyl)-5-(1-(4-fluorophenyl)-1H-indazol-6-yl)-N-methyl-6-(N-methylmethylsulfonamido)benzofuran-3-carboxamide]",5.2 nM,2.8 nM

SMILES,IC50 (HCV replicon genotype 1a),IC50 (HCV replicon genotype 1b)
CNC(=O)c1c(-c2ccc(F)cc2)oc2cc(N(C)S(C)(=O)=O)c(-c3ccc4ncn(-c5ccc(F)cn5)c4c3)cc12 [Compound 35],35.2 nM,5.9 nM
CNC(=O)c1c(-c2ccc(F)cc2)oc2cc(N(C)S(C)(=O)=O)c(-c3cn4c(-c5ccc(C(F)(F)F)cc5)cnc4cn3)cc12 [Compound 92],12.9 nM,5.1 nM
CNC(=O)c1c(-c2ccc(F)cc2)oc2cc(N(C)S(C)(=O)=O)c(-c3cc(F)c4ncn(-c5ccc(F)c(F)c5)c4c3)cc12 [Compound 29],5 nM,3.3 nM
CNC(=O)c1c(-c2ccc(F)cc2)oc2cc(N(C)S(C)(=O)=O)c(-c3cc(F)c4ncn(-c5ccccc5)c4c3)cc12 [Compound 20],6.1 nM,2.4 nM
CNC(=O)c1c(-c2ccc(F)cc2)oc2cc(N(C)S(C)(=O)=O)c(-c3cnc4ccn(-c5ccc(Cl)cc5)c4c3)cc12 [Compound 50],3.2 nM,4.1 nM
CNC(=O)c1c(-c2ccc(F)cc2)oc2cc(N(C)S(C)(=O)=O)c(-c3ccc4oc(-c5ccc(F)cc5)nc4c3)cc12 [Compound 87],51.5 nM,10.8 nM
CNC(=O)c1c(-c2ccc(F)cc2)oc2cc(N(C)S(C)(=O)=O)c(-c3cc(F)c4ncn(-c5ccc(F)cc5)c4c3)cc12 [Compound 28],4.2 nM,3.3 nM
"CNC(=O)c1c(-c2ccc(F)cc2)oc2cc(N(C)S(C)(=O)=O)c(-c3cc(-c4nc5ncccc5o4)c4occc4c3)cc12 [Compound 97, 2-(4-fluorophenyl)-N-methyl-6-(N-methylmethylsulfonamido)-7′-(oxazolo[4,5-b]pyridin-2-yl)-[5,5′-bibenzofuran]-3-carboxamide]",2.7 nM,1.3 nM
CNC(=O)c1c(-c2ccc(F)cc2)oc2cc(N(C)S(C)(=O)=O)c(-c3cccc4nc(-c5ccc(F)cc5)oc34)cc12 [Compound 86],714 nM,304 nM
"CNC(=O)c1c(-c2ccc(F)cc2)oc2cc(N(C)S(C)(=O)=O)c(-c3cn4c(-c5ccc(F)cc5)cnc4cn3)cc12 [Compound 91, 2-(4-fluorophenyl)-5-(3-(4-fluorophenyl)imidazo[1,2-a]pyrazin-6-yl)-N-methyl-6-(N-methylmethylsulfonamido)benzofuran-3-carboxamide]",48.2 nM,8.1 nM
CNC(=O)c1c(-c2ccc(F)cc2)oc2cc(N(C)S(C)(=O)=O)c(-c3ccc4c(ccn4-c4ccc(F)cc4)c3)cc12 [Compound 54],109 nM,14.1 nM
CNC(=O)c1c(-c2ccc(F)cc2)oc2cc(N(C)S(C)(=O)=O)c(-c3cc(-c4nc5c(F)cccc5o4)c4occc4c3)cc12 [Compound 98],3.7 nM,4.1 nM
CNC(=O)c1c(-c2ccc(F)cc2)oc2cc(N(C)S(C)(=O)=O)c(-c3ccc4ccn(-c5ccncc5)c4c3)cc12 [Compound 51],34.6 nM,7.8 nM
CNC(=O)c1c(-c2ccc(F)cc2)oc2cc(N(C)S(C)(=O)=O)c(-c3ccn4cc(-c5ccccc5)nc4c3)cc12 [Compound 89],7 nM,2.7 nM
"CNC(=O)c1c(-c2ccc(F)cc2)oc2cc(N(C)S(C)(=O)=O)c(-c3cc(OC)c4[nH]c(=O)n(-c5cc(F)cc(F)c5)c4c3)cc12 [Compound 80, 5-(3-(3,5-difluorophenyl)-7-methoxy-2-oxo-2,3-dihydro-1H-benzo[d]imidazol-5-yl)-2-(4-fluorophenyl)-N-methyl-6-(N-methylmethylsulfonamido)benzofuran-3-carboxamide]",9 nM,6.6 nM
"CNC(=O)c1c(-c2ccc(F)cc2)oc2cc(N(C)S(C)(=O)=O)c(-c3cc(F)c4nc(C)n(-c5ccc(F)c(C(N)=O)c5)c4c3)cc12 [Compound 109, 5-(1-(3-carbamoyl-4-fluorophenyl)-4-fluoro-2-methyl-1H-benzo[d]imidazol-6-yl)-2-(4-fluorophenyl)-N-methyl-6-(N-methylmethylsulfonamido)benzofuran-3-carboxamide]",110 nM,21.1 nM
"CNC(=O)c1c(-c2ccc(F)cc2)oc2cc(N(C)S(C)(=O)=O)c(-c3ncc4ncn(-c5ccc(OC(F)(F)F)cc5)c4n3)cc12 [Compound 39, 2-(4-fluorophenyl)-N-methyl-6-(N-methylmethylsulfonamido)-5-(9-(4-(trifluoromethoxy)phenyl)-9H-purin-2-yl)benzofuran-3-carboxamide]",1820 nM,82.4 nM
CNC(=O)c1c(-c2ccc(F)cc2)oc2cc(N(C)S(C)(=O)=O)c(-c3cc(OC)c4nc(C)n(-c5cc(F)cc(F)c5)c4c3)cc12 [Compound 37],6.8 nM,4.3 nM
CNC(=O)c1c(-c2ccc(F)cc2)oc2cc(N(C)S(C)(=O)=O)c(-c3ncc4ncn(-c5ccc(F)cc5)c4n3)cc12 [Compound 40],338 nM,20.2 nM
CNC(=O)c1c(-c2ccc(F)cc2)oc2cc(N(C)S(C)(=O)=O)c(-c3cc(F)c4ncn(-c5ccc(F)c(C(N)=O)c5)c4c3)cc12 [Compound 110],111 nM,13.8 nM
